Data from paper PMC10439952, “JT002, a small molecule inhibitor of the NLRP3 inflammasome for the treatment of autoinflammatory disorders” (Scientific Reports, 2023).

Tests used:
NLRP3 inflammasome = NLRP3 inflammasome (Mus musculus, UniProt Q8R4B8); experiment: Inhibition of IL-1β production in mouse BMDMs stimulated by LPS + nigericin; format: cell-based; set-up: host or cells: mouse PBMCs; mouse bone-marrow derived macrophages; mouse whole blood (C57BL/6 in the ex vivo study); details: Mouse BMDM, read-out: Geo Av IC50, IL-1β
NLRP3 inflammasome, sequence (Q8R4B8 whole entry): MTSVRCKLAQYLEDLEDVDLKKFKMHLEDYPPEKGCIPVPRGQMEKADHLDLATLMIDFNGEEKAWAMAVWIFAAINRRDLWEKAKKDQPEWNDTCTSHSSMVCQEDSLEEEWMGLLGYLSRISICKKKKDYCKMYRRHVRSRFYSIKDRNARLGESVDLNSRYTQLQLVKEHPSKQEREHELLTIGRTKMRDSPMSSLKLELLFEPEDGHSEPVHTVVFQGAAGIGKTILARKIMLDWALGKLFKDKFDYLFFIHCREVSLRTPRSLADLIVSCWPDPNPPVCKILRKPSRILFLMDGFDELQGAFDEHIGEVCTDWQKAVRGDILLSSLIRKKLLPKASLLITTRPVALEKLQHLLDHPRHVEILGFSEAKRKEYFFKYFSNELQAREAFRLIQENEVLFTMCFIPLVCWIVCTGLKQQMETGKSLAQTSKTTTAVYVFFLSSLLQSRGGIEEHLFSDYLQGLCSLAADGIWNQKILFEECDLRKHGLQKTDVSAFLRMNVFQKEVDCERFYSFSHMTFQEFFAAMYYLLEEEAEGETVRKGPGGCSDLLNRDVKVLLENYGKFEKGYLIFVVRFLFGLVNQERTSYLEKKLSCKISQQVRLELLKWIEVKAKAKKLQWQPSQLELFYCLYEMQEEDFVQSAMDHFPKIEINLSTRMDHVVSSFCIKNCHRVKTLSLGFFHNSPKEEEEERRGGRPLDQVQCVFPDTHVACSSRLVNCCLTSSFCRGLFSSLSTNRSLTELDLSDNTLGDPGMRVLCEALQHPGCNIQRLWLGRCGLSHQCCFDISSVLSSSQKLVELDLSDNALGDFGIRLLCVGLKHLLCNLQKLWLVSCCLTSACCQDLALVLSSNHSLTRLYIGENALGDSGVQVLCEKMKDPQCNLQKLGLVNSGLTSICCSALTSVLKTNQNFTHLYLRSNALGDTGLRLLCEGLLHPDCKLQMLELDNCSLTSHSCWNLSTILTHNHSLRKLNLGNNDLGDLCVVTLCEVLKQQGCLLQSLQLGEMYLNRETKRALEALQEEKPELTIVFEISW
Method: Inflammasome activation and whole blood assays were essentially carried out as described earlier. Details can be found in the supplementary information section accompanying this publication. A protocol for blood draws from healthy volunteers and use of the blood in preclinical assays was approved by Western Institutional Review Board, Inc (Puyallup, WA, USA). Informed consent was obtained from each donor prior to the first blood draw.
Cell viability was determined by addition of an equal volume of CellTiter-Glo® 2.0 reagent (Promega) to the remaining cells/supernatant in each well. Intracellular Caspase-1 activity was measured using the Caspase-Glo® assay (Promega) according to the manufacturer’s instructions. The biochemical capsase-1 assay was conducted at Reaction Biology Corporation (Malvern, USA). Human IL-1β, IL-1α, and TNFα and mouse IL-1β were measured in cell culture supernatants using homogeneous time resolved fluorescence assay kits (HTRF, Cisbio, Codolet, France). Human IL-18 was measured in cell culture supernatants using an ELISA kit (R&D Systems, Minneapolis, MN, USA). Plasma IL-1β concentrations were determined by Quantikine® ELISA (R&D Systems, Minneapolis, MN).
4H). MS: m/z 433.1 (M+H+). […]

[1] = Plasma JT002 concentrations in mice after a single oral dose; format: in vivo, mouse; details: single oral dose 25 mg/kg
Method: In vivo pharmacodynamics (PD) were evaluated in mice for determination of target engagement as this species is routinely used for assessment of preclinical efficacy. Treatment of fresh, whole blood with LPS plus ATP results in the NLRP3-dependent release of IL-1β, thus providing a robust method for tracking target engagement of NLRP3 inflammasome inhibitors in the circulation after oral dose administration[36],[47]. In vivo target engagement using ex vivo stimulation of blood was evaluated in mice at various times after oral dosing of JT002. For each time point tested, one group of mice received a single oral dose of 25 mg/kg JT002 (n = 8/group) and another group received the vehicle control (n = 8/group). At the time of harvest, blood was collected from each animal and an aliquot removed and processed to plasma for determination of JT002 concentrations. The remaining blood was stimulated ex vivo with LPS plus ATP followed by analysis of IL-1β concentrations (Fig. 3A). […] Consistent with these findings, plasma concentrations of JT002 decreased over time, with mean concentrations of ≥ 4.0 µM through 8 h and a mean concentration of 6 nM at the 24-h sampling (Fig. 3C,D). […]

Q: Which IC50 (NLRP3 inflammasome) does the source give for `CO[C@@H]1COc2c(S(=O)(=O)NC(=O)Nc3c4c(cc5c3CCC5)CCC4)cnn2C1` [JT002] here?
A: Its IC50 is 23 nM.

Q: And the concentration at 24 h ([1]; male, C57BL/6, mouse, plasma, 24-h sampling)?
A: The concentration at 24 h was 6 nM.

Q: And the concentration at 24 h ([1]; through 8 h)?
A: The concentration at 24 h was ≥ 4000 nM.
